For one assay, the target named is Carbonic anhydrase 1 (Homo sapiens, UniProt P00915). Put plainly: Inhibition of recombinant human carbonic anhydrase 1 by stopped flow CO2 hydrase assay.
For the next assay, the target named is Carbonic anhydrase 2 (Homo sapiens, UniProt P00918). Put plainly: Inhibition of recombinant human carbonic anhydrase 2 by stopped flow CO2 hydrase assay.
The next assay has as its target Carbonic anhydrase 9 (Homo sapiens, UniProt Q16790). Put plainly: Inhibition of recombinant human carbonic anhydrase 9 by stopped flow CO2 hydrase assay.
The next assay has as its target Carbonic anhydrase 13 (Homo sapiens, UniProt Q8N1Q1). The assay can be described thus: Inhibition of recombinant human carbonic anhydrase 13 by stopped flow CO2 hydrase assay.

Sequence of Carbonic anhydrase 1 (P00915 whole entry): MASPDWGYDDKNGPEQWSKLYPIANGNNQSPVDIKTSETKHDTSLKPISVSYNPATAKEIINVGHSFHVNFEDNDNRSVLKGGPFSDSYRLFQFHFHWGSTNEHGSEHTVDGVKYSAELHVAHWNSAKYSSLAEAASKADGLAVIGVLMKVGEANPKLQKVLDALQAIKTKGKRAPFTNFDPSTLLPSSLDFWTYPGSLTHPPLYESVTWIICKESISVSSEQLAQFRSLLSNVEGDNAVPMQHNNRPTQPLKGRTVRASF
Sequence of Carbonic anhydrase 13 (Q8N1Q1 whole entry): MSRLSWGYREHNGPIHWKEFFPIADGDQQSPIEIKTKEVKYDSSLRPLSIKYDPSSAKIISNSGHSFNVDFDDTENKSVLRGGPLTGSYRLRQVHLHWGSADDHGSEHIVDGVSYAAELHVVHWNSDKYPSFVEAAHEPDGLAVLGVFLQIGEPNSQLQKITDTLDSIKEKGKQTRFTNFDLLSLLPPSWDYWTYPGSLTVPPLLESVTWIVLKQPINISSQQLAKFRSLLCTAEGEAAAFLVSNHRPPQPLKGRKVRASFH

The Ki is the dissociation constant of the complex between target and ligand, obtained from inhibition or displacement. Turning to `Cc1ccc(-c2nnc(-c3ccc(C#N)cc3)o2)cc1S(N)(=O)=O`, the Ki on Carbonic anhydrase 1, at Carbonic anhydrase 2, at Carbonic anhydrase 9 and on Carbonic anhydrase 13 was greater than 10 µM throughout.

On to `N#Cc1ccc(-c2nnc(-c3cccc(S(N)(=O)=O)c3)o2)cc1`, for which, on Carbonic anhydrase 9, the Ki turned out to be 0.0763 µM.

Take `COc1ccc(-c2nnc(-c3ccc(OC)c(S(N)(=O)=O)c3)o2)c(OC)c1`: the Ki on Carbonic anhydrase 1, on Carbonic anhydrase 2, on Carbonic anhydrase 9 and on Carbonic anhydrase 13 was greater than 10 µM throughout.

`Cc1ccc(-c2nnc(-c3cccc([N+](=O)[O-])c3)o2)cc1S(N)(=O)=O`: the inhibition constant Ki on Carbonic anhydrase 1, at Carbonic anhydrase 2, at Carbonic anhydrase 9 and at Carbonic anhydrase 13 was greater than 10 µM each time.

For `COc1ccc(OC)c(-c2nnc(-c3cccc(S(N)(=O)=O)c3)o2)c1`, the Ki on Carbonic anhydrase 9 was found to be 0.0768 µM.

On to `Cc1ccc(-c2nnc(-c3ccccc3)o2)cc1S(N)(=O)=O`, for which the Ki on Carbonic anhydrase 1, at Carbonic anhydrase 2, on Carbonic anhydrase 9 and at Carbonic anhydrase 13 was greater than 10 µM in each case.

Take `NS(=O)(=O)c1cccc(-c2nnc(-c3ccc(Cl)cc3)o2)c1`: the inhibition constant (Ki) at Carbonic anhydrase 9 worked out at 0.0545 µM.

In the case of `NS(=O)(=O)c1cccc(-c2nnc(-c3cccc([N+](=O)[O-])c3)o2)c1`, the inhibition constant Ki at Carbonic anhydrase 9 came out at 0.044 µM.

Consider `COc1ccc(-c2nnc(-c3ccc(C)c(S(N)(=O)=O)c3)o2)c(OC)c1`, for which the Ki at Carbonic anhydrase 1, on Carbonic anhydrase 2, at Carbonic anhydrase 9 and on Carbonic anhydrase 13 was greater than 10 µM throughout.

As to `NS(=O)(=O)c1cccc(-c2nnc(-c3cccs3)o2)c1`, on Carbonic anhydrase 9, the Ki came out at 0.0853 µM.

As for `NS(=O)(=O)c1cccc(-c2nnc(-c3ccc([N+](=O)[O-])cc3)o2)c1`, on Carbonic anhydrase 9, the Ki is 0.0571 µM.

Turning to `NS(=O)(=O)c1cccc(-c2nnc(-c3ccc(Cl)cc3Cl)o2)c1`, the inhibitory constant (Ki) at Carbonic anhydrase 9 amounted to 0.0763 µM.

Turning to `Cc1ccc(-c2nnc(-c3ccc(Cl)cc3Cl)o2)cc1S(N)(=O)=O`, the inhibition constant (Ki) at Carbonic anhydrase 1, on Carbonic anhydrase 2, on Carbonic anhydrase 9 and on Carbonic anhydrase 13 was greater than 10 µM throughout.

Turning to `COc1cc(-c2nnc(-c3cccc(S(N)(=O)=O)c3)o2)cc(OC)c1OC`, at Carbonic anhydrase 9, the inhibitory constant (Ki) is 0.0683 µM.

Consider `NS(=O)(=O)c1cccc(-c2nnc(-c3ccccc3)o2)c1`, for which the Ki at Carbonic anhydrase 9 is 0.108 µM.

`COc1ccc(-c2nnc(-c3ccccc3)o2)cc1S(N)(=O)=O`: the inhibition constant Ki at Carbonic anhydrase 1, at Carbonic anhydrase 2, at Carbonic anhydrase 9 and on Carbonic anhydrase 13 was greater than 10 µM in each case.

Take `COc1ccc(-c2nnc(-c3cccc(S(N)(=O)=O)c3)o2)c(OC)c1`: the inhibitory constant (Ki) on Carbonic anhydrase 9 worked out at 0.0822 µM.

With `COc1ccc(-c2nnc(-c3cccc([N+](=O)[O-])c3)o2)cc1S(N)(=O)=O`, the Ki at Carbonic anhydrase 1, at Carbonic anhydrase 2, on Carbonic anhydrase 9 and on Carbonic anhydrase 13 was greater than 10 µM in each case.

`Cc1ccc(-c2nnc(-c3ccc(Cl)cc3)o2)cc1S(N)(=O)=O`: the Ki on Carbonic anhydrase 1, at Carbonic anhydrase 2, at Carbonic anhydrase 9 and on Carbonic anhydrase 13 was greater than 10 µM each time.

The values above are taken from ChEMBL document CHEMBL4706696, “3-Functionalised benzenesulphonamide based 1,3,4-oxadiazoles as selective carbonic anhydrase XIII inhibitors: Design, synthesis and biological evaluation” (Bioorg Med Chem Lett, 2021).
